Results: PubChem BioAssay (NCI)
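Values below derive from 48-hour exposures of cells grown in 96-well plates, with endpoints linearly interpolated between the two concentrations bracketing the appropriate inhibition level. GI50 is the concentration that inhibits growth by half. TGI: concentration producing complete growth inhibition.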

Legend:
Assay in all cases: NCI tumour cell line growth inhibition, 48 h
TK-10 renal = system: TK-10 renal
SW-620 colon = system: SW-620 colon
NCI-H460 lung = system: NCI-H460 lung
SNB-75 CNS = system: SNB-75 CNS
UO-31 renal = system: UO-31 renal
NCI-H23 lung = system: NCI-H23 lung
SK-MEL-28 melanoma = system: SK-MEL-28 melanoma
A549 NSCLC = system: A549 NSCLC
SNB-19 CNS = system: SNB-19 CNS
NCI/ADR-RES ovarian = system: NCI/ADR-RES ovarian

SMILES | TGI (TK-10 renal) | TGI (SW-620 colon) | TGI (NCI-H460 lung) | TGI (SNB-75 CNS) | TGI (UO-31 renal) | TGI (NCI-H23 lung) | TGI (SK-MEL-28 melanoma) | TGI (A549 NSCLC) | TGI (SNB-19 CNS) | TGI (NCI/ADR-RES ovarian) | GI50 (TK-10 renal) | GI50 (SW-620 colon) | GI50 (NCI-H460 lung) | GI50 (SNB-19 CNS) | GI50 (NCI/ADR-RES ovarian) | GI50 (SNB-75 CNS) | GI50 (UO-31 renal) | GI50 (SK-MEL-28 melanoma) | GI50 (A549 NSCLC) | GI50 (NCI-H23 lung)
CC(C)N1C(C)[C@@H](c2ccccc2)O[P@@]1(=O)CC1=CCCCC1 (some centres not stated) | > 100 µM | > 100 µM | > 100 µM | > 100 µM | > 100 µM | > 100 µM | > 100 µM | > 100 µM |  |  |  |  |  |  |  |  |  |  |  | 
COC(=O)C(=O)C(C(C)=O)C(=O)NCc1ccccc1 (configuration not stated) | > 100 µM | 19 µM | > 100 µM | > 100 µM | > 100 µM | > 100 µM | > 100 µM | > 100 µM | > 100 µM |  |  |  |  |  |  |  |  |  |  | 
COc1cc([C@@H]2OC(=O)C3C2C(=O)O[C@H]3c2ccc(O)c(OC)c2)ccc1O (some centres not stated) | > 100 µM | > 100 µM | > 100 µM | > 100 µM | > 100 µM | > 100 µM | > 100 µM | > 100 µM | > 100 µM |  |  |  |  |  |  |  |  |  |  | 
O=C(NCCCl)Nc1ccccc1 |  | > 100 µM | > 100 µM | > 100 µM | > 100 µM | > 100 µM | > 100 µM | > 100 µM | > 100 µM | > 100 µM |  |  |  |  |  |  |  |  |  | 
COc1cc2c3c(n(CCN4CCOCC4)c(=O)c2cc1OC)-c1ccccc1C3=O | > 100 µM | > 100 µM | > 100 µM | > 100 µM | > 100 µM |  | > 100 µM | > 100 µM | > 100 µM | > 100 µM | > 100 µM | 89.2 µM | 45.1 µM | > 100 µM | > 100 µM | > 100 µM | 63.3 µM | > 100 µM | > 100 µM | 
COc1ccc2c(CCCc3ccc(Cl)cc3Cl)c3[n+](cc2c1OC)CCc1cc2c(cc1-3)OCO2 |  | 1.58 µM | 1.32 µM |  | 3.08 µM | 1.42 µM | 1.83 µM |  |  | 54.2 µM |  | 0.383 µM | 0.343 µM |  | 7.74 µM |  | 1.58 µM | 0.492 µM |  | 0.327 µM
CC(=O)c1ccc2c3c1[C@H]1O[C@H]1c1cccc(c1-3)[C@@H]1O[C@H]21 | > 51.2 µM | 3.01 µM |  | 6.12 µM | 3.41 µM | 3.42 µM | 5.96 µM | 9.32 µM | 13.1 µM | 5.68 µM |  |  |  |  | 2.3 µM |  |  |  |  | 
O=C1CC(Cc2n[nH]c3c2CCCC3)CC(=O)N1 | > 100 µM | > 100 µM |  | > 100 µM |  | > 100 µM | > 100 µM | > 100 µM |  | > 100 µM |  |  |  |  |  |  |  |  |  | 
CC(=O)[CH-]C(=O)c1ccccc1.CC(=O)[CH-]C(=O)c1ccccc1.CC[C@H](/C=C/C(C)[C@H]1CCC2[C@@H]3CC=C4C[C@@H]([O-])CC[C@]4(C)C3CC[C@@]21C)C(C)C.CC[C@H](/C=C/C(C)[C@H]1CCC2[C@@H]3CC=C4C[C@@H]([O-])CC[C@]4(C)C3CC[C@@]21C)C(C)C.Cl.[Ti+4] (some centres not stated) | > 25 µM | > 25 µM | > 25 µM |  | > 25 µM | > 25 µM | > 25 µM | > 25 µM | > 25 µM |  | > 25 µM | > 25 µM | > 25 µM | > 25 µM |  |  | > 25 µM | 6.08 µM | > 25 µM | > 25 µM
CC(=O)O[C@@H]1C2=C(C)C3(CC3)[C@@](C)(O)C(=O)C2=C[C@@]1(C)CO | > 100 µM | > 100 µM | 1.08 µM | 1.38 µM |  | 2.66 µM | 4.52 µM | 24.2 µM | 9.6 µM | 4.11 µM | 2.6 µM | 0.355 µM | 0.296 µM | 1.08 µM | 0.416 µM | 0.217 µM |  | 1.98 µM | 1.05 µM | 0.473 µM
CCOC(=O)C(=O)Nc1c(C)cccc1C(C)(C)C | > 100 µM | > 100 µM | > 100 µM | > 100 µM | > 100 µM | > 100 µM | > 100 µM |  | > 100 µM |  |  |  |  |  |  |  |  |  |  | 
CC(C)c1[nH]nc2c(NCc3ccc(-c4ccccn4)cc3)nc(SCCN(C)C)nc12 | 11.9 µM | 12.1 µM | 11.7 µM | 0.138 µM |  | 0.598 µM | 0.21 µM | 13 µM | 12.6 µM | 11.4 µM | 0.0456 µM | < 0.0135 µM | 0.112 µM | 0.0244 µM | 0.13 µM | 0.0223 µM |  | 0.0226 µM |  | 0.0646 µM
COC(=O)c1ccc(NC(=O)c2ccc(NC3=C(Cl)C(=O)N(Cc4ccccc4)C3=O)cc2)cc1 |  | 33 µM | > 100 µM | 64.4 µM | 31.7 µM | 24.4 µM | 47.3 µM | 29.2 µM | 30.4 µM | 27 µM |  | 15.1 µM | 27.3 µM | 16.5 µM | 14 µM | 28.8 µM | 17.9 µM | 23.6 µM | 15.8 µM | 12.1 µM
NC(=O)C(=O)C1C(=O)N(c2ccccc2)N=C1N (configuration not stated) | > 100 µM | > 100 µM | > 100 µM | > 100 µM | > 100 µM | > 100 µM | > 100 µM | > 100 µM | > 100 µM |  |  |  |  |  |  |  |  |  |  | 
CN(CCCN1C(=O)c2cccc3cc([N+](=O)[O-])cc(c23)C1=O)CCN(C)CCCN1C(=O)c2cccc3cc([N+](=O)[O-])cc(c23)C1=O | > 39.3 µM | > 39.3 µM | > 39.3 µM | > 39.3 µM |  | > 39.3 µM | > 39.3 µM | > 39.3 µM | > 39.3 µM |  |  |  |  |  |  |  |  |  |  | 
CCCCCCCCC(C)CCCCCCCCC(=O)OCC(COP(=O)([O-])OCC[N+](C)(C)C)OC(=O)CCCCCCCCC(C)CCCCCCCC (configuration not stated) | > 100 µM | > 100 µM | > 100 µM | > 100 µM | > 100 µM | > 100 µM | > 100 µM | > 100 µM | > 100 µM |  |  |  |  |  |  |  |  |  |  | 
CN(C)C(=S)/N=c1\ssc(=S)n1Cc1ccco1 | > 100 µM | > 100 µM | > 64.8 µM | > 23.9 µM | > 100 µM | 45.6 µM | > 100 µM | > 100 µM | > 78.4 µM |  |  |  |  |  |  |  |  |  |  | 
C#CCOc1cccc(Nc2ncnc3cc(NC(=O)C=C)ccc23)c1 | 35.6 µM | 27.8 µM | > 100 µM |  | 75.6 µM | > 100 µM | > 100 µM | > 100 µM | > 100 µM | > 100 µM | 4.05 µM | 3.15 µM | 10.4 µM | 23.8 µM | 9.66 µM |  | 3.51 µM | 23 µM | 9.44 µM | 26.6 µM
